Test results reported in publication PMC4884932, “Selective brain penetrable Nurr1 transactivator for treating Parkinson's disease” (Oncotarget, 2016).

Tests used:
[1] = molecular target: T1, farnesoid X receptor (FXR) (Homo sapiens, UniProt Q96RI1); assay: Receptor transactivation assay, FXR (CV-1 cells, FXR and RXRα vectors); type: cell-based; conditions: at physiological concentrations
T1 sequence (Q96RI1 1-486): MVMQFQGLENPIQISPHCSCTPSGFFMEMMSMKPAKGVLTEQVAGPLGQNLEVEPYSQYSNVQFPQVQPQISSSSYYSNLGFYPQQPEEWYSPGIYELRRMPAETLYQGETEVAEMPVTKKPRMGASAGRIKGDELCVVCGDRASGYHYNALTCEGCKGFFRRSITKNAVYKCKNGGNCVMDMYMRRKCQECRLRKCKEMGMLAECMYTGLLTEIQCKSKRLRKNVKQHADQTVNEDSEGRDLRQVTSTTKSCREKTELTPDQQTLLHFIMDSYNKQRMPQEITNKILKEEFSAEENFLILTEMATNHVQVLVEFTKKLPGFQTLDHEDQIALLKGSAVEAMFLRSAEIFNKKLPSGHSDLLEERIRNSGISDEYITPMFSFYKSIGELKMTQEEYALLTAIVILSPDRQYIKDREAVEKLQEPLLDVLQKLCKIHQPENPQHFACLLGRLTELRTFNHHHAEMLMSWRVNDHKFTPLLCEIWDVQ
T1 sequence (P19793 1-462 partner): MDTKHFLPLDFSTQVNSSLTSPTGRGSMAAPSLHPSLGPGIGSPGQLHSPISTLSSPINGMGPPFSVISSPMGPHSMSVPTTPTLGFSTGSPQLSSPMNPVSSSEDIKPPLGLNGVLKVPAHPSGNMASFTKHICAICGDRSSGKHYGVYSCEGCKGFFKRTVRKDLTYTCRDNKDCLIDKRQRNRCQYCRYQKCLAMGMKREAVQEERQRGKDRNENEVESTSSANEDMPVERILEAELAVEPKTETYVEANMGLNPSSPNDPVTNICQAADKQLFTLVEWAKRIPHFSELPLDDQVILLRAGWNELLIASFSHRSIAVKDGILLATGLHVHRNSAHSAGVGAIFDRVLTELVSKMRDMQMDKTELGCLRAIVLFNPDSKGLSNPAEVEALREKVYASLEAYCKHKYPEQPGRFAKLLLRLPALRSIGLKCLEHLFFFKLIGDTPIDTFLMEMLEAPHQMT
From the text: (§1) For RXR: CV-1 cells were transfected with rCRBPII/RXRE-tk-Luc reporter gene and an expression vector for RXRα, β, or γ. For RAR: CV-1 cells were transfected with ERE-tk-Luc reporter gene and an expression vector for the appropriate ER-RARα, β, or γ. ER-RARs are fusion proteins, composed of the estrogen receptor (ER) DNA binding domain fused to the ligand binding domain of RARs. This system eliminates interference by the low level of endogenous RAR activity in CV1 cells as the readout comes only from the transfected ER-RAR. For PPARγ: CV-1 cells were transfected with 3x(rAOX/DR1)-tk-Luc reporter gene and an expression vector for PPARγ; for FXR: CV-1 cells were transfected with 3x(IBABP/IR1)-tk-Luc reporter gene and vectors for FXR and RXRα; for LXR: CV-1 cells were transfected with 3x(PLTP/LXRE)-tk-Luc reporter gene with vectors for LXRα or LXRβ. For Nurr1: COS7 cells were transfected with 3xNBRE-tk-luc reporter gene and full length Nurr1 with or without full-length RXRα plasmid. […] Luciferase data were normalized to co-transfected β-gal activity. Luciferase activity is expressed as percent of maximal activity obtained using specific agonists 9-cis-retinoic acid (RXR), retinoic acid (RAR), rosiglitazone (PPARγ), GW4064 (FXR), T0901317 (LXR).

6-OHDA lesioned rats [2] = assay: Dopamine and metabolites in the striatum by HPLC, 6-OHDA lesioned rats; type: in vivo, rat; conditions: 10mg/kg/day gavage for three weeks, p < 0.01
Description: (§2) All surgical procedures were performed under general anesthesia with ketamine/xylazine. 2μl 6-OHDA (20 mg/ml in 0.02% ascorbic acid) was stereotaxically injected into the right striatum of male SD rats. Lesion coordinates were set according to bregma and dura in mm: ML-3.7; AP-1.0; DV-5.5. The injection rate was 2μl/5 min and the injecting needle was left for 2 minutes after injection to avoid back flow. Apomorphine-induced rotations (see below) were assessed three days post-lesion and rats with ≥ 30 full contralateral rotation/30 minutes were included in the study.
Rats were randomly grouped into vehicle control group (n = 11) and drug treatment group (n = 10). […] The control group received DMSO/corn oil (vehicle). […]
The left and right striatum were isolated and homogenized with artificial cerebrospinal fluid and centrifuged at x10,000 g for 15 minutes. Protein content of the supernatant was measured by Bradford assay (Bio-Rad). Dopamine, HVA and DOPAC were measured using an isocratic HPLC system with electrochemical detection, consisting of a pump (ESA model 582 [ESA Chelmsford, MA]), automatic injector (ESA model 542 Autosampler), and a Coulochem III detector (ESA) in conjunction with a guard cell (ESA model 5020) and an analytical cell (ESA model 5014B). […] Data were collected and analyzed using the EZStart software (Agilent Technologies, Santa Clara, CA). […]

6-OHDA lesioned rats [3] = assay: TH-immunoreactive neuron count in the SN of 6-OHDA lesioned rats; type: in vivo, rat; conditions: 10mg/kg/day gavage for three weeks, compared to the vehicle-treated group, p < 0.05
Description: as §2
Rats were randomly grouped into vehicle control group (n = 11) and drug treatment group (n = 10). […] The control group received DMSO/corn oil (vehicle). The treatment continued for three weeks.
The caudal portion of the brains were sectioned in the coronal plane on a cryostat at 12 μm. From a random start corresponding to SNpc position, every 12th section was selected -, fixed with 4% paraformaldehyde and processed for tyrosine hydroxylase (TH) staining using mouse monoclonal anti-TH antibody (1:2000, Chemicon) and the Vectastain Elite ABC kit (Vector Lab) according to manufacturer's instruction. TH positive neurons were counted as described.

[4] = system: tyrosine hydroxylase (TH)-positive DA neurons; assay: DA neuron survival in primary ventral midbrain (VMB) culture; type: cell-based, mouse; conditions: primary VMB neurons, dose-dependent
Description: Ventral midbrain (VMB) from E13.5-14.5 C57BL/6 mouse embryos were dissected, triturated and plated on poly-D-lysine coated 12 well plates or glass coverslips with the serum-free chemically-defined Neurobasal medium, supplemented with 2% B27, 0.5mM L-glutamine, 50I.U./ml penicillin and 50μg/ml streptomycin (Gibco-BRL). […] For each time point, cells were washed once with phosphate buffered saline and fixed with 4% paraformaldehyde for TH immunofluorescent staining. For cell counting, 10 frames were randomly captured from each well using a Leica fluorescent microscope and a minimum of four replicates for each dose and each time point were analyzed for each experiment.

RXRβ = RXRβ (Homo sapiens, UniProt P28702); conditions: CV-1 cells, 20h
Chain of RXRβ (P28702 whole entry): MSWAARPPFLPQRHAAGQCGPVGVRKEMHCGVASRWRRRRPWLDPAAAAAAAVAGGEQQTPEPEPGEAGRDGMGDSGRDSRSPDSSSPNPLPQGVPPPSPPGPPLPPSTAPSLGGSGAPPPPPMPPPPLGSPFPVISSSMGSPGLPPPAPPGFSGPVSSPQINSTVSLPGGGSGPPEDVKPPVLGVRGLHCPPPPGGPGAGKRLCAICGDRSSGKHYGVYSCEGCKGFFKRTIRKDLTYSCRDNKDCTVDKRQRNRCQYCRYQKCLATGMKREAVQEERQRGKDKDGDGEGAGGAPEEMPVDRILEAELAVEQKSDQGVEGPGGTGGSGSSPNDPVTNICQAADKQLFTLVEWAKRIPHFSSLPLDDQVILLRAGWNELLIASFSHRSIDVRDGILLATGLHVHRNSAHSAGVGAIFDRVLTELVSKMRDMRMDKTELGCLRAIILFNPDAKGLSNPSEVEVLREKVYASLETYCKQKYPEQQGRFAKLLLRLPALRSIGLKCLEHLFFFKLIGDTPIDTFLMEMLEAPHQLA
From the text: as §1

PPARγ = PPARγ (Homo sapiens, UniProt P37231); conditions: at physiological concentrations
Chain of PPARγ (P37231 whole entry, species assumed, one chain of several): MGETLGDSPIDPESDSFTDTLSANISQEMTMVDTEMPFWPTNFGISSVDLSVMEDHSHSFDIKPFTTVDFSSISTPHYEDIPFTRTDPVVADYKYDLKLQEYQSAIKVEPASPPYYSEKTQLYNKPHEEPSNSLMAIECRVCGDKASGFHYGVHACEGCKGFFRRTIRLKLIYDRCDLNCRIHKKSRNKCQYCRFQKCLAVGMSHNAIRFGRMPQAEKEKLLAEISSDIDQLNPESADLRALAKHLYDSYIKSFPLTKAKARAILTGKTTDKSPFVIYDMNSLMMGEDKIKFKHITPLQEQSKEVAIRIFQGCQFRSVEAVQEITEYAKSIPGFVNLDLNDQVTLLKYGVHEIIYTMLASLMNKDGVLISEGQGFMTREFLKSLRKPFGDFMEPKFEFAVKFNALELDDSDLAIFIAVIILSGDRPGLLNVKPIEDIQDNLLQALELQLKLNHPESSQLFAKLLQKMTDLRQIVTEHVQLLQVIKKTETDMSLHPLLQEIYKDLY
From the text: as §1

CC(/C=C/[C@@H]1C[C@]1(C)c1ccc2c(c1)C(C)(C)CCC2(C)C)=C\C(=O)O [IRX4204] was tested. Which “activation of RXR heterodimer of FXR” value [1] did it give?
Its value is “does not activate”.

And the “striatal dopamine loss in the lesioned side” value (6-OHDA lesioned rats [2])?
Its value is “much greater in the vehicle-treated group relative to the IRX4204 group”.

And the “loss of TH-immunoreactive neurons in the SN” value (6-OHDA lesioned rats [3])?
Its value is “significantly reduced the loss”.

And the “survival of TH-positive DA neurons” value [4]?
The value was “increased survival”.

And the “concentration that fully activates RXRβ” value (RXRβ)?
The value was 1 nM.

What about the “concentration that partially activates RXRβ” value (RXRβ) of the same compound?
The value was 0.1 nM.

And the “activation of RXR heterodimer of PPARγ” value (PPARγ)?
Its value is “does not activate”.
